According to article PMC4913896, “Bioactivity-Guided Identification of Botanical Inhibitors of Ketohexokinase” (PLoS ONE, 2016):
Like-named read-outs stand apart in the source and are kept apart here.

Target: T1, recombinant human KHKC (Homo sapiens, UniProt P50053)
T1 construct: Profinity eXact fusion tag (N, cleaved yes); made in house; host or cells: E. coli BL21 (DE3), vector pPAL8; cDNA from Hep G2 cells
T1 sequence (P50053 1-298): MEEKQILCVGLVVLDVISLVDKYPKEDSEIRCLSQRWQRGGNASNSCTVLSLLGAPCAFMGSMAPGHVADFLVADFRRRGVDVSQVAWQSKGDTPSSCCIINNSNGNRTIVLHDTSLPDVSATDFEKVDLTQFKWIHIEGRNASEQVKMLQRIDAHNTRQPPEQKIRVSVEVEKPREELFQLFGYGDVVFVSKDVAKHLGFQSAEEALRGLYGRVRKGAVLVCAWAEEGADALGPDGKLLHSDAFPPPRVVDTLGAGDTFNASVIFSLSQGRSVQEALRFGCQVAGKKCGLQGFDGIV
Assay: High throughput cell-free recombinant KHKC enzymatic assay (3-step reaction, decrease in NADH at A340nm)
Assay type: biochemical
Conditions: for inhibition at 50 µM: read-out: KHKC Inhibition (%)
Description: Botanical extracts and phytochemicals were screened for their inhibitory activity using a high throughput cell-free enzymatic assay that utilized recombinant KHKC. KHKC activity was assayed with a 3-step reaction (Fig 2). The Synergy 2 multi-mode microplate reader was used to measure the decrease in NADH at A340nm (BioTek Instruments, Inc., Winooski, VT). For screening of the botanical extracts and phytochemicals, the KHKC enzymatic assay was carried out at 37°C in a total reaction volume of 200 ul containing 50 mM PIPES, 6 mM MgCl2, 100 mM KCl, 5 mM ATP, 2 mM phosphoenolpyruvate, 0.3 mM NADH, 15 U of pyruvate kinase, 15 U of lactate dehydrogenase, and 75 ng KHKC. The botanical extracts (50 μg/mL) and phytochemicals (50 μM) were preincubated in the reaction mixture for 15 min at 37°C. Afterwards, 1 mM fructose was added to the reactions, except for the no fructose controls, and A340nm data were collected every minute for 1 hr. The changes in absorbance were calculated for all samples based on the linear phase of the reactions and adjusted for the no fructose controls. Compared to the fructose only controls (1 mM fructose, no inhibitors), percentage inhibition of KHKC for each sample was calculated. […] For phytochemicals that inhibited KHKC by at least 40%, dose responses were conducted from 0.05 to 100 μM. IC50s against KHKC were calculated. 4-(hydroxymercuri) benzoic acid sodium salt was used as a positive inhibitory control of KHKC [36]. All chemicals were purchased from Sigma-Aldrich (St. Louis, MO).
Recombinant human KHKC proteins: Recombinant human KHKC was produced using the Profinity eXact fusion-tag system (Bio-Rad Laboratories, Hercules, CA). RNA were isolated from Hep G2 cells. CDNA was generated using 1 μg of RNA (iScript cDNA synthesis kit, Bio-Rad Laboratories). The coding sequences of KHKC were amplified using iProof high-fidelity DNA polymerase (Bio-Rad Laboratories). The following primers were used: forward primer = 5’…[…]…3’ and reverse primer = 5’…[…]…3’. The amplicons were ligated into pPAL8, a bacterial expression vector. Sequencing, performed by Beckman Coulter Genomics (Danvers, MA), confirmed that the coding sequences of the KHKC clones were a match to the National Center for Biotechnology Information’s reference sequence. The clones were transformed into BL21 (DE3) chemi-competent expression cells (Bio-Rad Laboratories). E. coli cultures were grown at 37°C in terrific broth media containing 100 μg/mL ampicillin. When the cell density (OD600) reached 0.5–0.7, the expression of KHKC was induced by adding 1 mM isopropyl β-D-1-thiogalactopyranoside. After 3–4 hr incubation, the growth culture was centrifuged at 5,000 g for 10 min at 4°C and the pellet was stored at -80°C.
For protein purification, the bacterial cell pellet was lysed using B-PER in phosphate buffer (Thermo Fisher Scientific Inc., Rockford, IL) containing AEBSF protease inhibitor (EMD Chemicals, Gibbstown, NJ). The lysate was centrifuged at 30,000 x g for 30 min at 4°C to remove cell debris. The supernatant was filtered using a […] syringe filter and then loaded (2.5 mL/min) onto the Bio-Scale Mini Profinity eXact cartridges using the Profinia protein purification instrument (Bio-Rad Laboratories). The column was first washed with 100 mL sodium phosphate, pH 7.0 (10 ml/min, CV = 10) followed by 400 mL sodium phosphate, pH 7.0 (10 ml/min, CV = 15). The protein was eluted with 100 mM sodium phosphate and 100 mM sodium fluoride, pH 7.2 and incubated for 4 hr at 4°C. The tag-less protein was stored in 20% glycerol and frozen at -80°C until use.
GraphPad Prism 5.03 (GraphPad Software, La Jolla, CA) was utilized for the data and statistical analyses. To generate a best fit, an upper concentration (10,000 μg/mL at 100% inhibition) and a lower concentration (0.001 μg/mL at 0% inhibition) were added in order to calculate the IC50s for the inhibition of KHKC and for the inhibition of fructose-induced ATP depletion. […]

[1] = phytochemical library screen, 50 μM, 1 mM fructose
[2] = phytochemicals, dose response 0.05 to 100 μM, read-out: KHKC IC50

Compound | inhibition at 50 µM [1] | IC50 [2] | KHKC Inhibition (%) [1] | IC50 | inhibition at 50 µM
COc1cc(OC)c2ccc(=O)oc2c1CC=C(C)C [5,7-Dimethoxy-8-prenylcoumarin] | 70.4% | 10.3 µM |  |  | 
O=C(O)[C@H]1O[C@@H](Oc2cc(O)c3c(=O)cc(-c4ccc(O)cc4)oc3c2)[C@H](O)[C@@H](O)[C@@H]1O [Apigenin 7-glucuronide] |  | 16.1 µM | 53.1% |  | 
Swietenocoumarin B |  | 58.4 µM | 62.5% |  | 
COc1c(O)cc2oc(-c3ccccc3)cc(=O)c2c1O [Oroxylin A] | 42.1% | 8.2 µM |  |  | 
Methoxy isobavachalcone |  | 0.2 µM | 70.8% |  | 
CC(C)=CCc1c(-c2ccc(O)cc2O)oc2c(CC=C(C)C)c(O)cc(O)c2c1=O [Mulberrin] |  | 31.2 µM | 61.2% |  | 
3,4',5,7-THMethoxy3'-O-B-D-Xylopyranoside |  | 3.5 µM | 63.3% |  | 
COc1c(O)cc2c(=O)c3c(O)cc(O)c(CC=C(C)C)c3oc2c1CC=C(C)C [Cratoxyarborenone E] | 61.7% | 1 µM |  |  | 
COc1ccc2ccc(=O)oc2c1CC=C(C)C [Osthole] | 93.4% | 0.7 µM |  |  | 
Flavaspidic acid AB |  | 29.5 µM | 48.7% |  | 
α-/γ-Mangostin |  | 1.5 µM | 90.4% |  | 
O=c1cc(-c2ccc(O)cc2)oc2cc(O[C@@H]3O[C@H](CO)[C@@H](O)[C@H](O)[C@H]3O[C@@H]3OC[C@](O)(CO)[C@H]3O)cc(O)c12 [Apiin] | 47% | 21.5 µM |  |  | 
CC(C)=CCc1c(O)ccc2ccc(=O)oc12 [Osthenol] |  |  |  | 7.8 µM | 74.1%
CC(C)=CCc1c(O)ccc(C(=O)/C=C/c2ccc(O)cc2)c1O [Isobavachalcone] | 44.2% | 5.7 µM |  |  | 
